We go through 1 compound from patent US20140066394A1, “Substituted 6-(Benzylamino) Purine Riboside Derivatives, Use Thereof and Compositions Containing These Derivatives” (Biopatterns, S.R.O, priority 2009, published 2014).

In one test the test system is neutrophils. The test is described as follows: ANCA-induced neutrophil superoxide generation, lucigenin based assay. It counts as cell-based, human. To be noted: single concentration 10 μM, 10 minute period (FIG. 11). On the procedure:
FIG. 11 Inhibition of ANCA induced neutrophil ROS production by compound 10. Neutrophils were cultured at 2×10^6 cells/ml in RPMI1640 medium containing human serum antibiotics and 20 ng/ml TNFα for 10 minutes prior to addition of ANCA and a range of concentrations of compound 10. Generation of superoxide was determined over a 10 minute period using a lucigenin based assay. The area under the curve was calculated to give superoxide generation over the whole assay period.
(§1) ANCA are predominantly IgG autoantibodies directed against constituents of primary granules of neutrophils (PR3 and MPO). ANCA associated vasculitis is the most common primary systemic small-vessel vasculitis in adults. […] Neutrophils were cultured for 10 hours in RPMI1640 medium containing 2% human AB serum, 2 mM L-glutamine and antibiotics (100 U/ml penicillin, […] streptomycin) and their apoptosis determined by staining with Giemsa stain and observing an apoptotic morphology by light microscopy. […] The ability of compound 10 to inhibit ANCA-induced neutrophil inflammatory functions was also determined Neutrophils were cultured in RPMI1640 medium containing 2% human AB serum, 2 mM L-glutamine and antibiotics (100 U/ml penicillin, […] streptomycin). […] ANCA stimulated degranulation of neutrophils was assessed by release of myeloperoxidase in to the medium over a 30 minute period, with MPO measured by ELISA. […]

Test [1] deals with Human T-lymphoblastic leukemia cell line CEM. In words: In vitro cytotoxicity, Calcein AM assay, CEM. Type of test: cell-based. To be noted: Homo sapiens, 72 hours. The source says:
Low cytotoxicity of the compounds is the major property determining the cosmetic use. One of the parameters used, as the basis for cytotoxicity assays, is the metabolic activity of viable cells. For example, a microtiter assay, which uses the Calcein AM, is now widely used to quantitate cell proliferation and cytotoxicity. For instance, this assay is used in drug screening programs and in chemosensitivity testing. Because only metabolically active cells cleave Calcein AM, these assays detect viable cells exclusively. The quantity of […] Calcein AM corresponds to the number of vital cells in the culture.
Human T-lymphoblastic leukemia cell line CEM; promyelocytic HL-60 and monocytic U937 leukemias; breast carcinoma cell lines MCF-7, BT549, MDA-MB-231; glioblastoma U87MG cells; cervical carcinoma cells HELA; sarcoma cells U2OS and Saos2; hepatocellular carcinoma HepG2; mouse fibroblasts NIH3T3; mouse immortalized bone marrow macrophages B2.4 and B10A.4; P388D1 and L1210 leukemia; B16 and B16F10 melanomas; human osteosarcoma HOS; human myeloid leukemia K-562; human skin melanoma G-361 were used for routine screening of compounds. The cells were maintained in Nunc/Corning 80 cm^2 plastic tissue culture flasks and cultured in cell culture medium (DMEM with 5 g/l glucose, 2 mM glutamine, 100 U/mL penicillin, 100 μg/mL streptomycin, 10% fetal calf serum and sodium bicarbonate).
The cell suspensions that were prepared and diluted according to the particular cell type and the expected target cell density (2.500-30.000 cells per well based on cell growth characteristics) were added by pipette ([…]) into 96/well microtiter plates. Inoculates were allowed a pre-incubation period of 24 hours at 37° C. and 5% CO2 for stabilisation. Four-fold dilutions of the intended test concentration were added at time zero in 20 μl aliquots to the microtiter plate wells. Usually, the compound tested was evaluated at six 4-fold dilutions. In routine testing, the highest well concentration was 100 μM, but it can be the matter of change dependent on the agent. All drug concentrations were examined in duplicates. Incubations of cells with the tested compounds lasted for 72 hours at 37° C., in 5% CO2 atmosphere and 100% humidity. At the end of the incubation period, the cells were assayed by using Calcein AM. Ten microliters of the stock solution were pipetted into each well and incubated for 1 hour. Fluorescence (FD) was measured with the Labsystem FIA Reader Fluoroscan Ascent (UK). The tumour cell survival (GI50) was calculated using the following equitation: TCS=(FDdrug exposed well/mean FDeontrol wells)×100%. The GI50 value, the drug concentration lethal to 50% of the tumour cells, was calculated from the obtained dose response curves.
Zero cytotoxicity of the novel compounds is the basic prerequisite for agricultural and tumor-unrelated applications. The cytoxicity of the novel compounds was tested on a panel of cell lines of different histogenetic and species origin (Table 9). We show herein that equal activities were found in all tumour cell lines tested, however, the non-malignant cells, e.g. NIH3T3 fibroblasts and normal human lymphocytes, were resistant to 2,6-disubstituted purine ribosides induced cytotoxicity. The compounds listed in Tab. 9 can be divided into 2 groups. The first group contains “classical cytokinins” represented by 6-substituted purine ribosides (which are known in the prior art). The second group contains the novel 2,6-disubstituted derivatives of these compounds. […] GI50 for NIH3T3 fibroblasts and normal human lymphocytes was always higher than 100 μM. The novel derivatives show no toxicity to normal and tumour cells in concentrations about 100 μM and thus are more suitable for agricultural applications than “classical cytokinins” (6-substituted purine riboside derivatives).

The test system of test [2] is human umbilical vein endothelial cells (HUVEC). The test is described as follows: Neutrophil mediated damage to endothelial cells (HUVEC viability, trypan blue). Type of test: cell-based. Further details: death of HUVEC treated with TNF-primed neutrophils: dose or concentration left out as unconfirmed. The method, then:
HUVEC were cultured to confluence in tissue culture plates and incubated overnight with neutrophils treated with 20 ng/ml TNFα (+TNF),
[…] Viable cells remain attached to the plastic wells and are visualised by phase contrast light microscopy. The image shown is representative of 3 separate experiments.
as §1, with “adults. The common pathology of this disease is focal necrotizing lesions of blood vessels and may affect different vessels and organs.” for “adults.”

A value given as a limit tells only on which side of the number the result lay.

Usually GI50 stands for the concentration giving 50% growth inhibition. In the case of `COc1cccc(CNc2nc(Cl)nc3c2ncn3C2OC(CO)C(O)C2O)c1O` (stereo not shown) [Compound 10, 2-Chloro-6-(2-hydroxy-3-methoxybenzylamino)purine riboside], the ANCA-induced superoxide generation result with neutrophils is “completely inhibited ANCA-induced superoxide generation”. Also, in test [1], the GI50 was greater than 100 µM. In addition, in test [2] (ANCA-activated TNF primed-neutrophils, 24 h (90% without compound)), the “HUVEC cell death in the presence of ANCA” value came to 50%. The “death of HUVEC treated with TNF-primed neutrophils” value in test [2] (overnight / 24 h, without ANCA) is reported as “completely block the death of HUVEC”.
